Data on one molecule can be found in paper PMC7707092, “Discovery and characterization of ORM‐11372, a novel inhibitor of the sodium‐calcium exchanger with positive inotropic activity” (British Journal of Pharmacology, 2020).

The target of series [1] is T1, noradrenaline transporter (Rattus norvegicus, UniProt Q9WTR4).
T1 construct: [^3H]noradrenaline incorporated into rat hypothalamus synaptosomes; from tissue; host or cells: rat hypothalamus synaptosomes
In words: [^3H]noradrenaline uptake into rat hypothalamus synaptosomes. It counts as biochemical. As to the method:
Radioligand binding assays were performed at Eurofins Cerep SA (Celle L'Evescault, France), for testing the inhibition capacity of ORM‐11372 (at 10 μM with two replicates), in over 75 targets. These included receptors (e.g., human A1, A2A, and A3 adenosine receptors; α1 and α2 adrenoceptors; human β1–β3 adrenergic receptors; human D1, D2S, D3, D4.4, and D5 dopamine receptors; EGF and VEGF receptors; human M1–M5 muscarinic ACh receptors; human 5‐HT1A, 5‐HT2A, 5‐HT2B, 5‐HT2C, 5‐HT4e, 5‐HT5A, 5‐HT6, and 5‐HT7 receptors), ion channels (5‐HT3, Ca^2+, ATP‐dependent potassium channel [KATP], voltage‐dependent potassium channel [KV], small‐conductance calcium‐dependent potassium channel [SKCa], Na^+, and Cl^−), and transporters (adenosine, noradrenaline, dopamine, and 5‐HT). Follow‐up functional studies (with five concentrations and two replicates) were performed for 5‐HT2A receptors and noradrenaline transporter. Agonism and antagonism at h5‐HT2A receptors was explored in recombinant HEK 293 cells and intracellular calcium changes were detected using fluorimetry. Noradrenaline uptake was measured by carrying out scintillation counting of [^3H]noradrenaline incorporated into rat hypothalamus synaptosomes.

Series [2] deals with human iPS cardiomyocyte action potentials. In words: Action potentials in spontaneously beating hiPSC cardiomyocytes (Cor.4U). Conditions: 0.1 or 0.3 μM. It counts as cell-based. The procedure:
APs were recorded in spontaneously beating Cor.4U CMs in the current clamp using the perforated patch technique and voltage‐sensitive dye (di‐4‐ANEPPS), in a 96‐well plate format. The latter ratiometric optical measurements were performed on the CellOPTIQ platform at Clyde Biosciences (Newhouse, UK).
Effect of ORM-11372 (A: 0.1 µM; B: 0.3 µM) on human iPS cardiomyocyte action potentials. A left, Action potentials recorded in current-clamp at baseline (black trace), during exposure to ORM-11372 (red trace) and during wash off (grey trace). The dashed line denotes 0 mV. On the right is plotted, for the individual cardiomyocytes (n = 4), the action potential duration (APD) at 30, 50 and 90 % repolarisation in 0.1 µM ORM-11372 as the percentage of their baseline values. B, Action potentials and APDs recorded with voltage sensitive dye at baseline (black trace) and after 30 min treatment with either vehicle (0.1 % DMSO; blue trace and circles) or 0.3 µM ORM-11372 (red trace and squares). The APDs at 30, 50 and 90 % repolarisation […]
vehicle and ORM-11372 (*p<0.05 unpaired Student’s t-test).
(1 picture or pasted object on this page, not shown here)

Series [3] has as its system anaesthetized rats with myocardial infarctions. In words: Haemodynamics in anaesthetized MI and sham rats. It counts as in vivo. Conditions: for free plasma concentration: 417 μg·kg^−1·min^−1; for maximal positive inotropic effect (LV + dP/dt max): i.v. infusion 417 μg·kg^−1·min^−1. The source says: Male Sprague–Dawley rats (Harlan, Netherlands B.V.) were housed in polycarbonate cages (Makrolon IV with stainless steel wire mesh lids). A maximum of five rats were housed per cage with aspen chip bedding (Tapvei Ky, Kaavi, Finland). Rats had free access to water (twice filtered, Espoon Vesi) and a rodent diet (SDS RM1 (P) SQC pelleted diet, Special Diet Services Ltd, Witham, England). The acclimation period before experiments was at least 5 days. In the MI model, rats (7–8 weeks, 200–250 g) were randomized into either the MI or sham group. In this weight range, a rat is considered a young adult, when its evolution phase is characterized by slow growth and its surgical mortality is lower than that of older animals. Male rats were used to minimize the variability of the cardiac response to several stimuli (Zornoff, Paiva, Minicucci, & Spadaro, 2009).
Rats were anaesthetized with a combination of ketamine (Ketalar® 50 mg·kg−1, i.p.) and medetomidine (Domitor 250 μg·kg^−1, i.p.), intubated, and artificially ventilated with air (Ugo Basile 7025). An MI was induced by the occlusion of the left coronary artery under aseptic conditions (Levijoki, Pollesello, Kaheinen, & Haikala, 2001; Selye, Bajusz, Grasso, & Mendell, 1960). The left coronary artery was ligated at a distance of about 2–3 mm from the origin of the aorta with a silk suture, and the heart was repositioned into the chest. After ligation, the wound was closed carefully. The muscle layer was closed with soluble stitches and skin layers with insoluble stitches, followed by a partial reversal of anaesthesia via the […] administration of atipamezole (Antisedan® 0.3–1 mg·kg^−1, i.m.). The trachea tube was removed, and the trachea and underlying muscle and skin layers were closed immediately. To prevent dehydration, rats were subcutaneously administered with 5 ml of 0.9% NaCl. After surgery, rats were given analgesia with buprenorphine for at least 2 days (0.05 mg·kg^−1, s.c. twice a day). For sham‐operated rats, the same procedure was performed, without ligation. Rats were analysed for 7 days after the MI, for signs of severe acute heart failure such as oedema or breathing difficulties.
All animals were given multiple ascending infusion doses of ORM‐11372; blinding was not possible. Systemic BP (SP) and left ventricular pressure (LVP) values were measured with pressure transducers (SP for femoral artery: Isotec, Hugo Sachs Elektronic, Germany; a miniature pressure transducer Mikro‐Tip transducer SPR‐249, Millar Instruments was inserted into the left ventricle via the right carotid artery). The signal was amplified (DC‐bridge amplifier type 660, Hugo Sachs Elektronik, Germany), digitized (I/O connector block type SCB‐68, National Instruments, USA), recorded, and analysed (IHME 1.0.9, Fision Ltd, Finland). Left ventricular inotropic effect (LV + dP/dt max), relaxation (LV − dP/dt min), and HR values were analysed from LVP signals.
Haemodynamics were assessed 7 days after the MI (n = 6) or sham operation (n = 6) as follows. Rats were anaesthetized with isoflurane (2.25–2.5%, Baxter) in carbogen (95% O2 and 5% CO2) and nitrous oxide (1:1), using a small rodent ventilator (Ugo Basile 7025, ~10 ml·kg^−1, 60 strokes·min^−1). The rats were infused with 0.9% NaCl in the […] at the stabilization and baseline levels. ORM‐11372 was administered into MI (n = 6) and sham (n = 6) rats in ascending infusion doses of 1.7, 17, 167, and 417 μg·kg^−1·min^−1. Infusions were administered into the jugular vein of MI rats at the infusion rate of 5 ml·kg^−1·h^−1 (Terumo TE‐311, Belgium). Doses were selected based on a pilot study with healthy rats (Figure S20). The total number of animals in the study was 12 + 2, due to the replacement of two MI rats. […]

pIC50: −log10 of the molar value.

T1 sequence (Q9WTR4 1-597): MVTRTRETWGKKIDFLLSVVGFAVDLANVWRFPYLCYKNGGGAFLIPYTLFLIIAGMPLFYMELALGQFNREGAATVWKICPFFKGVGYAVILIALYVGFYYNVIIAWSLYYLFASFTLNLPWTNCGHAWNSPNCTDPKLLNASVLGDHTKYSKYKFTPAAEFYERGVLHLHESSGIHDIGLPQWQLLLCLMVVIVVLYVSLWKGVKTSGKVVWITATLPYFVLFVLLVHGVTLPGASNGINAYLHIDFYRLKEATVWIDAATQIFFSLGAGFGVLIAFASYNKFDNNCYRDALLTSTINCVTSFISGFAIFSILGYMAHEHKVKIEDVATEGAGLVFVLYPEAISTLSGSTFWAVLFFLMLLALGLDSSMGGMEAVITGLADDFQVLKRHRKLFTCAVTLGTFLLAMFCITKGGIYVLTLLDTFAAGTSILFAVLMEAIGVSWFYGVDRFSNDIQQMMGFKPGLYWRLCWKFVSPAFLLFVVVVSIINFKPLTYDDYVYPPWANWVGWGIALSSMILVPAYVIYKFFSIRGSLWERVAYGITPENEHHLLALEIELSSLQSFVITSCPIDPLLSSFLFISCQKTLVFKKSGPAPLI

The molecule `Nc1cccc(-c2ccc(CNc3ccc(F)cc3)o2)c1` [ORM‐11372] showed a pIC50 in series [1] of 5.77. Moreover, in series [2], the “hiPSC‐CM APD” value is listed as “significant shortening”. For the same molecule, the improvement of relaxation in series [3] (MI group, lowest infusion dose 1.7 μg·kg^−1·min^−1) stood at 24 ± 2%. Moreover, in series [3] (MI or sham groups), the “systemic arterial BP” value was “no effect”. In series [3] (MI rats), the free plasma concentration amounted to 6.7 ± 2.5 nM and the “maximal positive inotropic effect (LV + dP/dt max)” value was determined as 18 ± 6%. Moreover, in series [3] (sham rats), the free plasma concentration worked out at 4.9 ± 0.4 nM and the “maximal positive inotropic effect (LV + dP/dt max)” value turned out to be 31 ± 6%.
